In article PMC13095408, “DBeQ derivative targets vacuolar protein sorting 4 functions in cancer cells and suppresses tumor growth in mice” (The Journal of Pharmacology and Experimental Therapeutics, 2025):

Assays:
[1] = Human plasma protein binding; type: in vitro ADME; details: 5 μM of compound
Protocol: All in vitro absorption, distribution, metabolism, and excretion (ADME) studies were conducted by BioDuro-Sundia. […] Caco-2 permeability, human liver microsomal stability, and human plasma protein binding assays as well as liquid chromatography-mass spectrometry/mass spectrometry analyses were performed following standard protocols previously described in detail ([Kazakova et al, 2023]).

U2OS cells = experiment: Immunoblot analysis of VPS4- and VCP-mediated pathways (autophagy, ER stress, ERAD); type: cell-based
Protocol: Whole-cell lysates were prepared in radio-immunoprecipitation buffer (25 mM Tris-HCl, pH 8.0, 150 mM NaCl, 1 mM EDTA, 1% v/v IGEPAL CA-630, 0.5% w/v sodium deoxycholate, and 1% v/v SDS) containing protease (1:250) and phosphatase inhibitor cocktails (1:100) then resolved via SDS-PAGE and probed with the indicated antibodies. Signals were acquired with the Odyssey CLx (LI-COR) for fluorescence or Odyssey XF (LI-COR) for chemiluminescence detection and visualized in Image Studio version 6 (LI-COR).
VPS4 is essential for autophagy and loss of VPS4 function inhibits autophagic flux ([Takahashi et al, 2018]; [Zhen et al, 2019]). Meanwhile, VCP is required for endoplasmic reticulum-associated degradation (ERAD; [Rabinovich et al, 2002]) where VCP inhibition results in the accumulation of ubiquitinated proteins and induction of ER stress ([Weihl et al, 2006]; [Bastola et al, 2016]).

[2] = test system: GFP-CHMP4B-expressing U2OS cells; experiment: GFP-CHMP4B accumulation cell-based assay (high-content microscopy)
Procedure, shortened: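 GFP-CHMP4B U2OS cells were cultured overnight, stained, then treated in SM with compounds (0.1% DMSO or 0.1% DMSO/0.1% ethanol vehicle final). High-content imaging used a 20× NA .70 objective at set intervals, ≥300 cells/well over 3 fields/well.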

VPS4B = target: T1, VPS4B (Homo sapiens, UniProt O75351); experiment: VPS4B ATPase activity, EnzChek Phosphate assay; type: biochemical; set-up: His tag (pET28a vector-encoded) (N); made in house; host or cells: Escherichia coli BL21(DE3)
T1 sequence (O75351 1-444): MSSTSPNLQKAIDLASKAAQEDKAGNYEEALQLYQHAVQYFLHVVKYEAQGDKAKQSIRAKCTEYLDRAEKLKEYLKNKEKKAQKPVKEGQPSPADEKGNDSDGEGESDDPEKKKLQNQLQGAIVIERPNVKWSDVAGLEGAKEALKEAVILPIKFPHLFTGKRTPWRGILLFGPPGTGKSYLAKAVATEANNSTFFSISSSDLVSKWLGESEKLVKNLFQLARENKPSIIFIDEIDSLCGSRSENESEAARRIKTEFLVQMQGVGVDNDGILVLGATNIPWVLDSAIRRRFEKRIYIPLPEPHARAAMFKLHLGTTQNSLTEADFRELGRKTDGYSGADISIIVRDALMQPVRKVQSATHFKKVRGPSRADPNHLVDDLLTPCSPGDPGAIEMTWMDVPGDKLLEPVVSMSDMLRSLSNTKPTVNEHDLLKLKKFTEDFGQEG
Procedure, shortened: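 EnzChek phosphate release (MESG/PNP, 360 nm) with ATPases at 1 μM (diluted stock) in HEPES pH 7.4 buffers with MgCl2, CaCl2, DTT, BSA, Triton; 30 min compound preincubation at RT, started with MgATP, read 20 min at 37 °C. Activity from 5-min linear initial rate, normalized to DMSO; IC50 from Hill slope −1 fit.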

[3] = 5 μM DBeQ, 0.6 μM CB-5083, 1 μM 4-107, complete media

Q: With COc1cccc2c(NCc3ccccc3)nc(NCc3ccccc3)nc12 [Compound 4-107, N^2,N^4-dibenzyl-8-methoxyquinazoline-2,4-diamine] as the compound, how does the fraction unbound at 5 μM [1] read?
A: 0.0007

Q: What about the “accumulation of K48-linked polyubiquitinated proteins” value (U2OS cells; 0.6 μM CB-5083, 1 μM 4-107, complete media) of the same compound?
A: did not induce ER stress or the accumulation of polyubiquitinated proteins

Q: What about the “VCP pathway (ubiquitinated proteins, ATF4, SQSTM1)” value (U2OS cells; 5 μM 4-107, 4 hours, complete media) of the same compound?
A: VCP pathway perturbation

Q: And the “ER stress (HSPA5, ATF4)” value (U2OS cells; [3])?
A: did not induce ER stress

Q: And the “autophagy (SQSTM1, LC3-II)” value (U2OS cells; [3])?
A: inhibited autophagy over time

Q: And the “GFP-CHMP4B (% 4-107)” value ([2]; screened at 1 µM, mean ± S.D., Supplemental Table 2)?
A: 100.00 ± 17.20 % 4-107

Q: And the “GFP-CHMP4B (% 4-107)” value ([2]; screened at 1 μM, starvation media, 1 hour, foci intensity per cell normalized to 4-107, mean ± SD, Table 1, listed as 1)?
A: 100.00 ± 17.20 % 4-107

Q: What about the IC50 (VPS4B; 0.5 μM enzyme) of the same compound?
A: 3.7 ± 0.1 µM

Q: What about the “VPS4B ATPase (% DMSO)” value (VPS4B; remaining ATPase activity, screened at 5 μM, mean ± SD, Table 1, listed as 1) of the same compound?
A: 36.67 ± 1.73 % DMSO

Q: What about the “VPS4B ATPase (% DMSO)” value (VPS4B; screened at 5 µM, mean ± S.D., Supplemental Table 2) of the same compound?
A: 36.67 ± 1.73 % DMSO
